For 15 molecules, MIC and IC50 results are on record in ChEMBL document CHEMBL1268823, “Bernthsen synthesis, antimicrobial activities and cytotoxicity of acridine derivatives” (Bioorg Med Chem Lett, 2010).

Values after ≈ are worked out from the molar mass of the structure shown.

For one experiment, the system named is Staphylococcus aureus. As to the kind of experiment: Antimicrobial activity against Staphylococcus aureus by agar plate disk diffusion method. In kind it is functional.
The test system of another experiment is Streptococcus pyogenes. In words: Antimicrobial activity against Streptococcus pyogenes by agar plate disk diffusion method. In kind it is functional. A general note: Agar diffusion results depend on both activity and mobility in agar.
For another experiment, the system named is Escherichia coli. As to the kind of experiment: Antimicrobial activity against Escherichia coli by agar plate disk diffusion method. In kind it is functional.
Another experiment has as its system Pseudomonas aeruginosa. In words: Antimicrobial activity against Pseudomonas aeruginosa by agar plate disk diffusion method. In kind it is functional.
Another experiment has as its system Aspergillus niger. In words: Antifungal activity against Aspergillus niger by agar plate disk diffusion method. In kind it is functional.
The test system of the next experiment is HEp-2. As to the kind of experiment: Cytotoxicity against human Hep2 cells by MTT assay. In kind it is functional, cell-based. On the technique in general: Tetrazolium dyes change colour on reduction, which living cells bring about.
A further experiment has as its system HL-60. As to the kind of experiment: Cytotoxicity against human HL60 cells by MTT assay. In kind it is functional, cell-based.
Another experiment deals with HEK-293T. As to the kind of experiment: Cytotoxicity against human HEK293T cells by MTT assay. In kind it is functional, cell-based.

The MIC is the least concentration at which growth counts as inhibited. Low values mean greater potency, high ones weaker potency. Usually IC50 stands for the point on the concentration scale where inhibition reaches its midpoint. A higher IC50 goes with weaker potency in that assay. Take `O=c1cc(Cc2c3ccccc3nc3ccccc23)c2ccccc2o1`: the minimum inhibitory concentration (MIC) against Staphylococcus aureus is 250 µg/mL (≈ 741 µM); in the experiment on Streptococcus pyogenes, 250 µg/mL (≈ 741 µM); in the experiment on Escherichia coli it was 250 µg/mL (≈ 741 µM); in the experiment on Pseudomonas aeruginosa, 250 µg/mL (≈ 741 µM); against Aspergillus niger, 500 µg/mL (≈ 1480 µM). Further, the IC50 in the experiment with HEp-2, in the experiment with HL-60 and with HEK-293T was greater than 100 µM in each case.

As to `O=c1cc(Cc2c3ccccc3nc3ccccc23)c2cc(O)ccc2o1`, the MIC with Staphylococcus aureus stood at 500 µg/mL (≈ 1410 µM); against Streptococcus pyogenes, 250 µg/mL (≈ 707 µM); in the experiment on Escherichia coli, 50 µg/mL (≈ 141 µM); in the experiment with Pseudomonas aeruginosa, 100 µg/mL (≈ 283 µM). The IC50 in the experiment with HEp-2, in the experiment with HL-60 and in the experiment on HEK-293T was greater than 100 µM each time.

`O=C(N[C@H](CO)[C@H](O)c1ccc([N+](=O)[O-])cc1)C(Cl)Cl` [CHLORAMPHENICOL]: the MIC against Staphylococcus aureus, in the experiment on Streptococcus pyogenes, against Escherichia coli and with Pseudomonas aeruginosa was 50 µg/mL (≈ 155 µM) in each case.

In the case of `Cc1ccc2oc(=O)cc(Cc3c4ccccc4nc4ccccc34)c2c1`, the MIC was 125 µg/mL (≈ 356 µM) in the experiment on Staphylococcus aureus; 100 µg/mL (≈ 285 µM) in the experiment on Streptococcus pyogenes; 125 µg/mL (≈ 356 µM) against Escherichia coli; 125 µg/mL (≈ 356 µM) against Pseudomonas aeruginosa; 500 µg/mL (≈ 1420 µM) against Aspergillus niger. In addition, the IC50 with HEp-2, in the experiment on HL-60 and in the experiment with HEK-293T was greater than 100 µM each time.

Turning to `CCn1cc(C(=O)O)c(=O)c2cc(F)c(N3CCNCC3)cc21` [NORFLOXACIN], the MIC in the experiment with Staphylococcus aureus, in the experiment on Streptococcus pyogenes, in the experiment with Escherichia coli and in the experiment with Pseudomonas aeruginosa was 10 µg/mL (≈ 31.3 µM) in each case.

Regarding `CC1(C)S[C@@H]2[C@H](NC(=O)[C@H](N)c3ccccc3)C(=O)N2[C@H]1C(=O)O` [AMPICILLIN], the MIC in the experiment on Staphylococcus aureus is 250 µg/mL (≈ 715 µM); in the experiment on Streptococcus pyogenes, 100 µg/mL (≈ 286 µM); in the experiment on Escherichia coli, 100 µg/mL (≈ 286 µM); against Pseudomonas aeruginosa, 100 µg/mL (≈ 286 µM).

Turning to `O=c1cc(Cc2c3ccccc3nc3ccccc23)c2ccc([N+](=O)[O-])cc2o1`, the MIC against Staphylococcus aureus turned out to be 250 µg/mL (≈ 654 µM); against Streptococcus pyogenes, 500 µg/mL (≈ 1310 µM); with Escherichia coli it was 100 µg/mL (≈ 262 µM); with Pseudomonas aeruginosa it was 200 µg/mL (≈ 523 µM); against Aspergillus niger it was 500 µg/mL (≈ 1310 µM). Further, the IC50 with HEp-2, with HL-60 and in the experiment on HEK-293T was greater than 100 µM each time.

Molecule `COC1=CC(=O)C[C@@H](C)[C@]12Oc1c(Cl)c(OC)cc(OC)c1C2=O` [GRISEOFULVIN] returned an MIC in the experiment with Aspergillus niger of 100 µg/mL (≈ 283 µM).

In the case of `O=c1cc(Cc2c3ccccc3nc3ccccc23)c2ccc(O)cc2o1`, the MIC with Staphylococcus aureus was 500 µg/mL (≈ 1410 µM); in the experiment on Streptococcus pyogenes, 500 µg/mL (≈ 1410 µM); against Escherichia coli, 200 µg/mL (≈ 566 µM); with Pseudomonas aeruginosa it was 250 µg/mL (≈ 707 µM); against Aspergillus niger it was greater than 1000 µg/mL. Also, the IC50 in the experiment on HEp-2, in the experiment with HL-60 and with HEK-293T was greater than 100 µM each time.

Consider `Cc1ccc2c(Cc3c4ccccc4nc4ccccc34)cc(=O)oc2c1`, for which the MIC in the experiment with Staphylococcus aureus was determined as 500 µg/mL (≈ 1420 µM); in the experiment on Streptococcus pyogenes, 50 µg/mL (≈ 142 µM); against Escherichia coli, 150 µg/mL (≈ 427 µM); against Pseudomonas aeruginosa, 62.5 µg/mL (≈ 178 µM); in the experiment with Aspergillus niger it was 1000 µg/mL (≈ 2850 µM). Moreover, the 50% inhibitory concentration (IC50) with HEp-2, with HL-60 and in the experiment with HEK-293T was greater than 100 µM in each case.

As for `O=C(O)c1cn(C2CC2)c2cc(N3CCNCC3)c(F)cc2c1=O` [CIPROFLOXACIN], the MIC in the experiment on Staphylococcus aureus turned out to be 50 µg/mL (≈ 151 µM); in the experiment on Streptococcus pyogenes, 50 µg/mL (≈ 151 µM); in the experiment with Escherichia coli it was 25 µg/mL (≈ 75.4 µM).

Turning to NYSTATIN, the MIC against Aspergillus niger worked out at 100 µg/mL.

`O=c1cc(Cc2c3ccccc3nc3ccccc23)c2cc(Cl)ccc2o1`: the MIC against Staphylococcus aureus was 250 µg/mL (≈ 672 µM); in the experiment on Streptococcus pyogenes, 75 µg/mL (≈ 202 µM); in the experiment on Escherichia coli, 75 µg/mL (≈ 202 µM); with Pseudomonas aeruginosa, 25 µg/mL (≈ 67.2 µM); against Aspergillus niger, 1000 µg/mL (≈ 2690 µM). Besides, the values for the IC50 in the experiment on HEp-2, in the experiment with HL-60 and with HEK-293T were greater than 100 µM, 28.7 µM and greater than 100 µM, respectively.

As for `O=c1cc(Cc2c3ccccc3nc3ccccc23)c2ccc(Cl)cc2o1`, the MIC with Staphylococcus aureus turned out to be 50 µg/mL (≈ 134 µM); in the experiment on Streptococcus pyogenes it was 250 µg/mL (≈ 672 µM); with Escherichia coli, 50 µg/mL (≈ 134 µM); against Pseudomonas aeruginosa, 500 µg/mL (≈ 1340 µM); against Aspergillus niger it was 1000 µg/mL (≈ 2690 µM). Also, the figures for the IC50 with HEp-2, with HL-60 and in the experiment on HEK-293T were greater than 100 µM, 27.5 µM and greater than 100 µM, respectively.

Consider `O=P1(N(CCCl)CCCl)NCCCO1` (stereo not drawn) [CYCLOPHOSPHAMIDE ANHYDROUS], for which the IC50 was greater than 100 µM with HEp-2, 8.79 µM in the experiment on HL-60 and greater than 100 µM in the experiment on HEK-293T.
